According to patent US11001590B2, “Pyrazolopyrimidine derivatives” (BAYER ANIMAL HEALTH GMBH, priority 2016, dated 2021):

Assays:
[1] = system: Dirofilaria immitis microfilariae; experiment: In vitro assay 3: Dirofilaria immitis microfilariae (DIROIM L1), motility; settings: 72 h, reduction of motility vs negative control, 72 h incubation
[2] = log P by HPLC on reversed phase columns (Method L0; [a] acidic, [b] neutral range); settings: for logP (Method L0) [a]: HPLC on reversed phase columns, Method L0, [a] acidic range; for log P: HPLC on reversed phase columns (Method L0)
Protocol: Calibration was done with straight-chain alkan-2-ones (with 3 to 16 carbon atoms) with known log P values (measurement of log P values using retention times with linear interpolation between successive alkanones). Lambda-max-values were determined using UV-spectra from 200 nm to 400 nm and the peak values of the chromatographic signals.

C. elegans Slo-1a = C. elegans Slo-1a (Caenorhabditis elegans, UniProt Q95V25); experiment: In vitro assay 1: C. elegans Slo-1a, action at a recombinant C. elegans CHO cell line (membrane potential measurement); settings: for pE50: CHO cells expressing C. elegans Slo-1a, voltage sensitive dye, FLIPR Tetra, negative decadic logarithm of EC50
[3] = last column of Table 1, column head not shown

Chain of C. elegans Slo-1a (Q95V25 whole entry): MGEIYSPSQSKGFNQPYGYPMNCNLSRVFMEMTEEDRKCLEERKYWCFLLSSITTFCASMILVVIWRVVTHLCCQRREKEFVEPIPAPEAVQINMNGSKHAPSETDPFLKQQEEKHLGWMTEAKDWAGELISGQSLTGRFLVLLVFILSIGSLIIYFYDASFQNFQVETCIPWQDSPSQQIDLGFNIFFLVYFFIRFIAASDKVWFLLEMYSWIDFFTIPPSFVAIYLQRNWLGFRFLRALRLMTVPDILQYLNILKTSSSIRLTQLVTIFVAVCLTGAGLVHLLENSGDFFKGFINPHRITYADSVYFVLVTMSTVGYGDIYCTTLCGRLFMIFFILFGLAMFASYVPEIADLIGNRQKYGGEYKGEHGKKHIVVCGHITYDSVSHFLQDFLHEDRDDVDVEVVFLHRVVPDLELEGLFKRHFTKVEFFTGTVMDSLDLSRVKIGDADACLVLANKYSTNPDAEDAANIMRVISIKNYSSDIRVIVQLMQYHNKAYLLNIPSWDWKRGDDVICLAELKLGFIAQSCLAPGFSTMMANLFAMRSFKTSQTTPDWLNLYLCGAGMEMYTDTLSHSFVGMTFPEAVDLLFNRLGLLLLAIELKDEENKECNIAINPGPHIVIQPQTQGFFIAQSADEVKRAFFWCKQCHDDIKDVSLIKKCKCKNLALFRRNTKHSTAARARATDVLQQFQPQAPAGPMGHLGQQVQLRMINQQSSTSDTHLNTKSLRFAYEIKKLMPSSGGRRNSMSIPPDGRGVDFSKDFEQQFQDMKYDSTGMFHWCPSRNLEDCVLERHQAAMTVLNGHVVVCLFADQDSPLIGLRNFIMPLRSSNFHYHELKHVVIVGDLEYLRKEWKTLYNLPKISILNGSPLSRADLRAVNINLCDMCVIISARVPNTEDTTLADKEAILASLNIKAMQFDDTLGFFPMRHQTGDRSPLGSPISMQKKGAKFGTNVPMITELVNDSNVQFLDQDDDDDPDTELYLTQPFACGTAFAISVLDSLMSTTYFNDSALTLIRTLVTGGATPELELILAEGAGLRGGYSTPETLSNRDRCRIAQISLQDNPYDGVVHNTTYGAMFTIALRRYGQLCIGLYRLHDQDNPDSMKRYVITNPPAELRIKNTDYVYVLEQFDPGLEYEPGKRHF

Row | Compound | chromatographic logP [2] | EC50 (C. elegans Slo-1a) [nM] | pE50 (C. elegans Slo-1a) | further results
1 | Cc1nn2c(C(C)C)c(C(=O)N[C@H]3CCCc4ccccc43)cnc2c1-c1cccc(C(F)(F)F)c1 [Example 3] | 5.59 | 50.1 | – | EC50 [1]: < 10 µg/mL
2 | Cc1c(C(=O)N[C@H]2CCc3ccccc32)cnc2c(-c3ccccc3Cl)c(Cl)nn12 [Example 74] | 3.99 | 39.8 | – | EC50 [1]: < 1 µg/mL
3 | Cc1c(C(=O)N[C@H]2CCCc3ccccc32)cnc2c(-c3ccccc3Cl)c(Cl)nn12 [Example 77] | 4.26 | 63.1 | – | EC50 [1]: < 10 µg/mL
4 | Cc1nn2c(C(C)C)c(C(=O)N[C@H]3CCOc4ccc(Cl)cc43)cnc2c1-c1ccccc1Cl [Example 104] | – | – | 7 | logP (Method L0) [a] [2]: 4.87
5 | Cc1nn2c(C(C)C)c(C(=O)N[C@H]3CCOc4ccc(Cl)cc43)cnc2c1-c1cccc(Cl)c1 [Example 105] | – | – | 6.8 | logP (Method L0) [a] [2]: 5.36
6 | Cc1ccc2c(c1)[C@@H](NC(=O)c1cnc3c(-c4c(F)cccc4F)c(C)nn3c1C(C)C)CCC2 [Example 108] | – | – | 7.3 | logP (Method L0) [a] [2]: 5.09
7 | Cc1ccc2c(c1)[C@@H](NC(=O)c1cnc3c(-c4ccccc4F)c(C)nn3c1C(C)C)CCC2 [Example 110] | – | – | 6.7 | logP (Method L0) [a] [2]: 5.16
8 | Cc1ccc2c(c1)[C@@H](NC(=O)c1cnc3c(-c4ccccc4Cl)c(C)nn3c1C(C)C)CCC2 [Example 111] | – | – | 7.2 | logP (Method L0) [a] [2]: 5.37
9 | Cc1nn2c(C(C)C)c(C(=O)N[C@H]3CCOc4ccc(Cl)cc43)cnc2c1-c1cc(F)ccc1F [Example 114] | – | – | 6.9 | logP (Method L0) [a] [2]: 4.82
10 | Cc1nn2c(C(C)C)c(C(=O)N[C@H]3CCCc4ccccc43)cnc2c1-c1ccc(Cl)c(C(=O)NC2CC2)c1 [Example 119] | – | – | 5.5 | logP (Method L0) [a] [2]: 4.07
11 | Cc1nn2c(C(C)C)c(C(=O)N[C@H]3CCc4ccccc43)cnc2c1-c1ccc2c(c1)OC(F)(F)O2 [Example 123] | 5.25 | 10 | – | –
12 | Cc1nn2c(C(C)C)c(C(=O)N[C@H]3CCCc4ccccc43)cnc2c1-c1cc(Cl)cc(C(F)(F)F)c1 [Example 124] | 6.36 | 7.94 | – | –
13 | Cc1nn2c(C(C)C)c(C(=O)N[C@H]3CCCc4ccccc43)cnc2c1-c1ccc(C(C)C)cc1 [Example 126] | 6.01 | 200 | – | –
14 | CC(C)c1c(C(=O)N[C@H]2CCc3ccccc32)cnc2c(-c3cc(Cl)cc(Cl)c3)c(C(F)(F)F)nn12 [Example 167] | 6.06 | 39.8 | – | –
15 | Cc1nn2c(C(C)C)c(C(=O)N[C@H]3CCOc4ccccc43)cnc2c1-c1ccc(C(F)(F)F)c(F)c1 [Example 187] | – | – | 7.9 | logP (Method L0) [a] [2]: 4.85
16 | Cc1nn2c(C(C)C)c(C(=O)N[C@H]3CCOc4ccccc43)cnc2c1-c1cccc(OC(F)(F)F)c1F [Example 215] | – | – | 9.1 | log P [2]: 5.02
17 | COc1c(Cl)ccc(-c2c(C)nn3c(C(C)C)c(C(=O)N[C@H]4CCOc5ccccc54)cnc23)c1F [Example 216] | – | – | 9.1 | log P [2]: 4.74
18 | Cc1nn2c(C(C)C)c(C(=O)N[C@H]3CCOc4ccccc43)cnc2c1-c1ccc(Cl)c(Cl)c1 [Example 230] | – | – | 8.1 | log P [2]: 5.48
19 | COc1ccc(F)c(-c2c(C)nn3c(C(C)C)c(C(=O)N[C@H]4CCOc5ccccc54)cnc23)c1Cl [Example 233] | – | – | 8.1 | log P [2]: 4.23
20 | COc1c(F)cc(F)c(-c2c(C)nn3c(C(C)C)c(C(=O)N[C@H]4CCOc5ccccc54)cnc23)c1F [Example 235] | – | – | 9.2 | log P [2]: 4.38
21 | CC(C)c1c(C(=O)N[C@H]2CCOc3ccccc32)cnc2c(-c3cccc(F)c3F)c(Cl)nn12 [Example 281, 2-Chloro-N—((S)-chroman-4-yl)-3-(2,3-difluorophenyl)-7-isopropylpyrazolo[1,5-a]pyrimidine-6-carboxamide] | – | 5.01 | – | EC50 [1]: < 0.1 µg/mL
22 | Cc1nn2c(C(C)C)c(C(=O)N[C@H]3CCc4ccccc43)cnc2c1-c1cccc(C#N)c1 [Example 291] | 4.31 | 50.1 | – | –
23 | Cc1nn2c(C(C)C)c(C(=O)N[C@H]3CCc4ccccc43)cnc2c1-c1cc(F)cc(C(F)(F)F)c1 [Example 292] | 5.6 | 39.8 | – | –
24 | Cc1nn2c(C(C)C)c(C(=O)N[C@H]3CCc4ccccc43)cnc2c1-c1ccc(C#N)c(C(F)(F)F)c1 [Example 293] | 4.97 | 316 | – | –
25 | Cc1nn2c(C(C)C)c(C(=O)N[C@H]3CCc4ccccc43)cnc2c1-c1ccc(Cl)nc1 [Example 295] | 4.21 | 63.1 | – | –
26 | Cc1nn2c(C(C)C)c(C(=O)N[C@H]3CCc4ccccc43)cnc2c1-c1cncnc1 [Example 296] | 2.99 | 7940 | – | –
27 | Cc1nn2c(C(C)C)c(C(=O)N[C@H]3CCc4ccccc43)cnc2c1-c1cnn(C)c1 [Example 303] | 3.13 | 794 | – | –

Row | Compound | chromatographic logP [2] | EC50 (C. elegans Slo-1a) [nM] | pE50 (C. elegans Slo-1a) | further results
28 | COCc1c(C(=O)N[C@H]2CCc3ccccc32)cnc2c(-c3cccc(C(F)(F)F)c3)c(C)nn12 [Example 305] | 4.52 | 63.1 | – | –
29 | CCc1c(C(=O)N[C@H]2CCc3ccccc32)cnc2c(-c3cccc(C(F)(F)F)c3)c(C)nn12 [Example 306] | 4.86 | 50.1 | – | –
30 | Cc1nn2c(C(C)C)c(C(=O)N[C@H]3CCc4ccccc43)cnc2c1-c1cnn(CC(F)(F)F)c1 [Example 310] | – | – | 8 | log P [2]: 3.81
31 | Cc1nn2c(C(F)F)c(C(=O)N[C@H]3CCc4ccccc43)cnc2c1-c1cccc(C(F)(F)F)c1 [Example 311, (S)-7-(Difluoromethyl)-N-(2,3-dihydro-1H-inden-1-yl)-2-methyl-3-(3-(trifluoromethyl)-phenyl)-pyrazolo[1,5-a]pyrimidine-6-carboxamide] | 4.36 | 200 | – | –
32 | Cc1nn2c(C(C)C)c(C(=O)N[C@H]3CCc4ccccc43)cnc2c1-c1cccc(N2CCOCC2)c1 [Example 316] | 4.26 | 158 | – | –
33 | Cc1nn2c(C(C)C)c(C(=O)N[C@H]3CCc4ccccc43)cnc2c1-c1ccncc1 [Example 318] | 1.84 | 1000 | – | –
34 | CCOc1cccc(-c2c(C)nn3c(C(C)C)c(C(=O)N[C@H]4CCc5ccccc54)cnc23)c1 [Example 322] | 4.94 | 12.6 | – | –
35 | Cc1nn2c(C(C)C)c(C(=O)N[C@H]3CCc4ccccc43)cnc2c1-c1ccc(N2CCOCC2)cc1 [Example 326] | 4.2 | 1260 | – | –
36 | Cc1nn2c(C(C)C)c(C(=O)N[C@H]3CCc4ccccc43)cnc2c1-c1cccc(-n2cccn2)c1 [Example 328] | 4.4 | 39.8 | – | –
37 | COc1ccc(-c2c(C)nn3c(C(C)C)c(C(=O)N[C@H]4CCc5ccccc54)cnc23)cc1 [Example 333] | 4.43 | 100 | – | –
38 | Cc1nn2c(C(C)C)c(C(=O)N[C@H]3CCc4ccccc43)cnc2c1-c1ccc(OC(F)F)cc1 [Example 335] | 4.66 | 126 | – | –
39 | CCOc1ccc(-c2c(C)nn3c(C(C)C)c(C(=O)N[C@H]4CCc5ccccc54)cnc23)cc1 [Example 339] | 4.87 | 2510 | – | –
40 | Cc1nn2c(C(C)C)c(C(=O)N[C@H]3CCCc4ccccc43)cnc2c1-c1cnn(CC(F)(F)F)c1 [Example 359] | – | – | 7.9 | log P [2]: 4.11
41 | Cc1nn2c(C(C)C)c(C(=O)N[C@H]3CCc4ccccc43)cnc2c1-c1cccc(C[S+](C)[O-])c1 (stereo partly shown) [Example 380] | – | – | 6 | log P [2]: 3.05
42 | Cc1nn2c(C(C)C)c(C(=O)N[C@H]3CCOc4ccccc43)cnc2c1-c1cnn(CC(F)(F)F)c1 [Example 401] | – | – | 7.9 | log P [2, 3]: 3.57
43 | Cc1nn2c(C3CC3)c(C(=O)N[C@H]3CCc4ccccc43)cnc2c1-c1cnn(CC(F)(F)F)c1 [Example 421] | – | – | 8.1 | log P [2, 3]: 3.17
44 | Cc1nn2c(C3CC3)c(C(=O)N[C@H]3CCOc4ccccc43)cnc2c1-c1cnn(CC(F)(F)F)c1 [Example 468] | – | – | 7.8 | log P [2, 3]: 2.95
45 | Cc1nn2c(CN(C)C)c(C(=O)N[C@H]3CCc4ccccc43)cnc2c1-c1cccc(Cl)c1Cl [Example 522] | – | – | 7.8 | log P [2, 3]: 2.08
46 | Cc1nn2c(CN(C)C)c(C(=O)N[C@H]3CCOc4ccccc43)cnc2c1-c1cccc(Cl)c1Cl [Example 523] | – | – | 8.0 | log P [2, 3]: 2.17
47 | CSCCN(C)c1c(C(=O)N[C@H]2CCOc3ccccc32)cnc2c(-c3cccc(Cl)c3Cl)c(C)nn12 [Example 529] | – | – | 8.1 | log P [2, 3]: 4.69
48 | Cc1nn2c(N3CCOCC3)c(C(=O)N[C@H]3CCOc4ccccc43)cnc2c1-c1cccc(C(F)(F)F)c1F [Example 530] | – | – | 9.0 | log P [2, 3]: 3.99
49 | Cc1nn2c(NC3CC3)c(C(=O)N[C@H]3CCOc4ccccc43)cnc2c1-c1cc(F)cc(F)c1 [Example 539] | – | – | 6.8 | log P [2, 3]: 4.46
50 | Cc1nn2c(N(C)CCS(C)(=O)=O)c(C(=O)N[C@H]3CCOc4ccccc43)cnc2c1-c1cc(Cl)cc(Cl)c1 [Example 541] | – | – | 8.0 | log P [2, 3]: 3.29
51 | Cc1nn2c(NC3CC3)c(C(=O)N[C@H]3CCOc4ccccc43)cnc2c1-c1cc(Cl)cc(Cl)c1 [Example 542] | – | – | 6.5 | log P [2, 3]: 5.59
52 | Cc1nn2c(NC3CC3)c(C(=O)N[C@H]3CCOc4ccccc43)cnc2c1-c1cccc(Cl)c1Cl [Example 546] | – | – | 8.2 | log P [2, 3]: 4.32
53 | Cc1nn2c(C3CC3)c(C(=O)N[C@H]3CCOc4ccccc43)cnc2c1-c1cc(F)cc(F)c1F [Example 557] | 3.72 | 2 | – | –
